Laboratory results from US6372446B1, “Method of selectively determining a fungal biomass” (Mycometer ApS, priority 1997, dated 2002).

Tests used:
Assay in all cases: Screening of fungi for enzyme activity with 4-methylumbelliferone-labelled substrates
Type in all cases: cell-based
[1] = test system: Paecilomyces farinosus (AGM 5); details: substrate 10 μM, 25° C., pH 5; for Enzyme activity: amount of released 4-methylumbelliferone: mineral medium; for Enzyme activity: amount of released 4-methylumbelliferone during 5 hours of incubation: vegetable juice medium
[2] = test system: Aspergillus versicolor (IBT 13738); details: substrate 10 μM, 25° C., pH 5; for Enzyme activity: amount of released 4-methylumbelliferone: mineral medium; for Enzyme activity: amount of released 4-methylumbelliferone during 5 hours of incubation: vegetable juice medium
[3] = test system: Cladosporium herbarum (AGM 8); details: substrate 10 μM, 25° C., pH 5; for Enzyme activity: amount of released 4-methylumbelliferone: mineral medium; for Enzyme activity: amount of released 4-methylumbelliferone during 5 hours of incubation: vegetable juice medium
[4] = test system: Ascobolus crenulatus (AAS 1); details: substrate 10 μM, 25° C., pH 5; for Enzyme activity: amount of released 4-methylumbelliferone: mineral medium; for Enzyme activity: amount of released 4-methylumbelliferone during 5 hours of incubation: vegetable juice medium
[5] = test system: Penicillium solitum (IBT 13771); details: substrate 10 μM, 25° C., pH 5; for Enzyme activity: amount of released 4-methylumbelliferone: mineral medium; for Enzyme activity: amount of released 4-methylumbelliferone during 5 hours of incubation: vegetable juice medium
[6] = test system: Sodaria fimicola (AAS 17); details: substrate 10 μM, 25° C., pH 5; for Enzyme activity: amount of released 4-methylumbelliferone: mineral medium; for Enzyme activity: amount of released 4-methylumbelliferone during 5 hours of incubation: vegetable juice medium
[7] = test system: Schizophyllum commune (AGM 25); details: substrate 10 μM, 25° C., pH 5; for Enzyme activity: amount of released 4-methylumbelliferone: mineral medium; for Enzyme activity: amount of released 4-methylumbelliferone during 5 hours of incubation: vegetable juice medium
[8] = test system: Eurotium sp. (AAS 36); details: substrate 10 μM, 25° C., pH 5; for Enzyme activity: amount of released 4-methylumbelliferone: mineral medium; for Enzyme activity: amount of released 4-methylumbelliferone during 5 hours of incubation: vegetable juice medium
[9] = test system: Rhizomucor pusillus (AAS 300); details: substrate 10 μM, 25° C., pH 5; for Enzyme activity: amount of released 4-methylumbelliferone: mineral medium; for Enzyme activity: amount of released 4-methylumbelliferone during 5 hours of incubation: vegetable juice medium
[10] = test system: Trametes versicolor (AGM 24); details: substrate 10 μM, 25° C., pH 5; for Enzyme activity: amount of released 4-methylumbelliferone: mineral medium; for Enzyme activity: amount of released 4-methylumbelliferone during 5 hours of incubation: vegetable juice medium
[11] = test system: Aureobasidium pullulans (QM 3092); details: substrate 10 μM, 25° C., pH 5; for Enzyme activity: amount of released 4-methylumbelliferone during 5 hours of incubation: Aureobasidium pulluians (QM 3092), vegetable juice medium; for Enzyme activity: amount of released 4-methylumbelliferone: Aureobasidium pullulans (QM 3092), mineral medium
[12] = test system: Penicillium commune (IBT 13713); details: substrate 10 μM, 25° C., pH 5; for Enzyme activity: amount of released 4-methylumbelliferone: mineral medium; for Enzyme activity: amount of released 4-methylumbelliferone during 5 hours of incubation: vegetable juice medium
[13] = test system: Mucor racemosus (AAS 310); details: substrate 10 μM, 25° C., pH 5; for Enzyme activity: amount of released 4-methylumbelliferone: mineral medium; for Enzyme activity: amount of released 4-methylumbelliferone during 5 hours of incubation: vegetable juice medium
[14] = test system: Aspergillus oryzae (AGM 11); details: substrate 10 μM, 25° C., pH 5; for Enzyme activity: amount of released 4-methylumbelliferone: mineral medium; for Enzyme activity: amount of released 4-methylumbelliferone during 5 hours of incubation: vegetable juice medium

SMILES | Enzyme activity: amount of released 4-methylumbelliferone [1] [µmol] | Enzyme activity: amount of released 4-methylumbelliferone during 5 hours of incubation [1] [µmol] | Enzyme activity: amount of released 4-methylumbelliferone [2] [µmol] | Enzyme activity: amount of released 4-methylumbelliferone during 5 hours of incubation [2] [µmol] | Enzyme activity: amount of released 4-methylumbelliferone [3] [µmol] | Enzyme activity: amount of released 4-methylumbelliferone during 5 hours of incubation [3] [µmol] | Enzyme activity: amount of released 4-methylumbelliferone [4] [µmol] | Enzyme activity: amount of released 4-methylumbelliferone during 5 hours of incubation [4] | Enzyme activity: amount of released 4-methylumbelliferone [5] [µmol] | Enzyme activity: amount of released 4-methylumbelliferone during 5 hours of incubation [5] [µmol] | Enzyme activity: amount of released 4-methylumbelliferone [6] [µmol] | Enzyme activity: amount of released 4-methylumbelliferone during 5 hours of incubation [6] | Enzyme activity: amount of released 4-methylumbelliferone [7] | Enzyme activity: amount of released 4-methylumbelliferone during 5 hours of incubation [7] | Enzyme activity: amount of released 4-methylumbelliferone [8] [µmol] | Enzyme activity: amount of released 4-methylumbelliferone during 5 hours of incubation [8] | Enzyme activity: amount of released 4-methylumbelliferone [9] [µmol] | Enzyme activity: amount of released 4-methylumbelliferone during 5 hours of incubation [9] | Enzyme activity: amount of released 4-methylumbelliferone [10] [µmol] | Enzyme activity: amount of released 4-methylumbelliferone during 5 hours of incubation [10] | also measured
CC(=O)N[C@H]1[C@H](Oc2ccc3c(C)cc(=O)oc3c2)O[C@H](COS(=O)(=O)O)[C@@H](O)[C@@H]1O [substrate 1, 4-methylumbelliferyl 7-6(sulfo-2-acetamido-2-deoxy-β-D-glucopyranoside)] | 0 | 0 | 0 | 0 | 0 | 0 | 0 | 0 µmol | 0 | 0 | 0 | 0 µmol | * (0.4 ≦ * < 1) | 0 µmol | 0 | 0 µmol | 0 | 0 µmol | 0 | 0 µmol | Enzyme activity: amount of released 4-methylumbelliferone during 5 hours of incubation [11]: 0 µmol; Enzyme activity: amount of released 4-methylumbelliferone [11]: 0 µmol; Enzyme activity: amount of released 4-methylumbelliferone [12]: 0 µmol; Enzyme activity: amount of released 4-methylumbelliferone during 5 hours of incubation [12]: 0 µmol; Enzyme activity: amount of released 4-methylumbelliferone [13]: * (0.4 ≦ * < 1); Enzyme activity: amount of released 4-methylumbelliferone during 5 hours of incubation [13]: * (0.4 ≦ * < 1); Enzyme activity: amount of released 4-methylumbelliferone [14]: 0 µmol; Enzyme activity: amount of released 4-methylumbelliferone during 5 hours of incubation [14]: 0 µmol
CC(=O)N[C@H]1[C@@H](Oc2ccc3c(C)cc(=O)oc3c2)O[C@H](CO)[C@@H](O)[C@@H]1O [substrate 2, 4-methylumbelliferyl N-acetyl-α-D-glucosaminide] | 0 | 0 | 0 | 0 | 0 | 0 | 0 | 0 µmol | 0 | 0 | 0 | 0 µmol | 0 µmol | 0 µmol | 0 | 0 µmol | 0 | 0 µmol | 0 | 0 µmol | Enzyme activity: amount of released 4-methylumbelliferone during 5 hours of incubation [11]: 0 µmol; Enzyme activity: amount of released 4-methylumbelliferone [11]: 0 µmol; Enzyme activity: amount of released 4-methylumbelliferone [12]: 0 µmol; Enzyme activity: amount of released 4-methylumbelliferone during 5 hours of incubation [12]: 0 µmol; Enzyme activity: amount of released 4-methylumbelliferone [13]: 0 µmol; Enzyme activity: amount of released 4-methylumbelliferone during 5 hours of incubation [13]: 0 µmol; Enzyme activity: amount of released 4-methylumbelliferone [14]: 0 µmol; Enzyme activity: amount of released 4-methylumbelliferone during 5 hours of incubation [14]: 0 µmol
Cc1cc(=O)oc2cc(OC3OC(CO)C(O)C(O)C3O)ccc12 [substrate 5, 4-methylumbelliferyl α-D-mannopyranoside] | 0 | 0 | 0 | 0 | 0 | 0 | 0 | 0 µmol | 0 | 0 | 0 | *** (2 ≦ ***) | 0 µmol | ** (1 ≦ ** 2) | 0 | * (0.4 ≦ * < 1) | 0 | *** (2 ≦ ***) | 0 | * (0.4 ≦ * < 1) | Enzyme activity: amount of released 4-methylumbelliferone during 5 hours of incubation [11]: ** (1 ≦ ** 2); Enzyme activity: amount of released 4-methylumbelliferone [11]: 0 µmol; Enzyme activity: amount of released 4-methylumbelliferone [12]: 0 µmol; Enzyme activity: amount of released 4-methylumbelliferone during 5 hours of incubation [12]: * (0.4 ≦ * < 1); Enzyme activity: amount of released 4-methylumbelliferone [13]: 0 µmol; Enzyme activity: amount of released 4-methylumbelliferone during 5 hours of incubation [13]: * (0.4 ≦ * < 1); Enzyme activity: amount of released 4-methylumbelliferone [14]: 0 µmol; Enzyme activity: amount of released 4-methylumbelliferone during 5 hours of incubation [14]: *** (2 ≦ ***)
Cc1cc(=O)oc2cc(O[C@@H]3O[C@H](CO)[C@@H](O)[C@H](O)[C@@H]3O)ccc12 [substrate 6, 4-methylumbelliferyl β-D-mannopyranoside] | 0 | 0 | 0 | 0 | 0 | 0 | 0 | * (0.4 ≦ * < 1) | 0 | 0 | 0 | *** (2 ≦ ***) | 0 µmol | *** (2 ≦ ***) | 0 | 0 µmol | 0 | 0 µmol | 0 | 0 µmol | Enzyme activity: amount of released 4-methylumbelliferone during 5 hours of incubation [11]: ** (1 ≦ ** 2); Enzyme activity: amount of released 4-methylumbelliferone [11]: 0 µmol; Enzyme activity: amount of released 4-methylumbelliferone [12]: 0 µmol; Enzyme activity: amount of released 4-methylumbelliferone during 5 hours of incubation [12]: * (0.4 ≦ * < 1); Enzyme activity: amount of released 4-methylumbelliferone [13]: 0 µmol; Enzyme activity: amount of released 4-methylumbelliferone during 5 hours of incubation [13]: ** (1 ≦ ** 2); Enzyme activity: amount of released 4-methylumbelliferone [14]: 0 µmol; Enzyme activity: amount of released 4-methylumbelliferone during 5 hours of incubation [14]: *** (2 ≦ ***)
